Experimental data reported in patent US20070202548A1, “SCREENING ASSAY TO IDENTIFY INHIBITORS OF THE MURD ENZYME USING AN ACTIVATOR-I[…] ENZYME” (priority 2002, published 2007).

Experiments:
[1] = test system: Staphylococcus aureus Mur D enzyme; assay: salt activation of S. aureus MurD; type: biochemical; details: FIG. 2
E. faecalis MurD [2] = molecular target: T1, E. faecalis MurD (Enterococcus faecalis, UniProt O07108, A218V/A300V/N165D/T307K); type: biochemical; details: FIG. 1 / FIG. 3
E. faecalis MurD [3] = molecular target: T1, E. faecalis MurD; assay: stability of E. faecalis Mur D in DMSO; type: biochemical; details: DMSO concentration up to 5%, FIG. 4
E. coli enzyme (MurD) = E. coli enzyme (MurD) (Escherichia coli, UniProt P14900); details: FIG. 3
Sequence of E. coli enzyme (MurD) (P14900 whole entry): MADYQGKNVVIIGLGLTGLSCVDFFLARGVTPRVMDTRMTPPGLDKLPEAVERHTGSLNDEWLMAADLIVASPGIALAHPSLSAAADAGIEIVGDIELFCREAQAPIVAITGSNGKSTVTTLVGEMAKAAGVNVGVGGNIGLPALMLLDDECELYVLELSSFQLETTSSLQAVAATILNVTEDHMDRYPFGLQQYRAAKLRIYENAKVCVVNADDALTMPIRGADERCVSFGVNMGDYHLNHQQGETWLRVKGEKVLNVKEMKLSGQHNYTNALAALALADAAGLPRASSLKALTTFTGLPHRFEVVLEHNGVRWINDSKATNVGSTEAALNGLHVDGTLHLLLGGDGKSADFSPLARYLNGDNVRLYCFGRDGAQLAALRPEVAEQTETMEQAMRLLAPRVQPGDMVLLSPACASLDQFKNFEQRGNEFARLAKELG

T1 sequence (O07108 whole entry N165D/A218V/A300V/T307K): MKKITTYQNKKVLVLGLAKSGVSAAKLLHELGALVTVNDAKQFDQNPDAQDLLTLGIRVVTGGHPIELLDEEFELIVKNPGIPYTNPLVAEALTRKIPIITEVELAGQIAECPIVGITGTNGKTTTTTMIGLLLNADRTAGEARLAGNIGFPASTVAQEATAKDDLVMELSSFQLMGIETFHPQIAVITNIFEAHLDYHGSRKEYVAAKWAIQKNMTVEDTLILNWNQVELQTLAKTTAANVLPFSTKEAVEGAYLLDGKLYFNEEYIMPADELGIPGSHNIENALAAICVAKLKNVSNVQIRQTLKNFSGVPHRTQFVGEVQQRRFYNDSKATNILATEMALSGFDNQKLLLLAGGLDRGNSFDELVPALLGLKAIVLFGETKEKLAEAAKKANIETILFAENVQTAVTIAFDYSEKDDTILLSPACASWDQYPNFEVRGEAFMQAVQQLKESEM

| SMILES | activation of S. aureus Mur D enzyme by cations [1] | effect of salt on E. faecalis MurD enzyme activity (E. faecalis MurD [2]) | other results |
| --- | --- | --- | --- |
| N [NH4^+, ammonium] | activated | – | – |
| O=S(=O)(O)O [SO4-ions] | – | inhibitor | – |
| C[S+](C)[O-] [DMSO, dimethylsulfoxide] | – | – | effect of DMSO on E. faecalis MurD (E. faecalis MurD [3]): not affected |
| [K+] [K^+, potassium] | activated | – | – |
| N.O=CO [ammonium formate] | – | independent | dependence of E. coli enzyme activity on presence of salt (E. coli enzyme (MurD)): dependent |
